Assay results from PMC8662641, “Site-Specific Labeling of Endogenous Proteins Using CoLDR Chemistry” (Journal of the American Chemical Society, 2021).
“And” between values parts separate entries of the source, which are not always exact repeats. Identical values can stand only once.

Tests used:
BTK = BTK (Homo sapiens, UniProt Q06187); parameters: BTK kinase domain was expressed and purified as previously reported; made in house; method as in Reddi et al., J. Am. Chem. Soc. 2021, 143 (13), 4979–4992; details: ref Reddi et al., J. Am. Chem. Soc. 2021, 143 (13), 4979–4992; cited from earlier work
Sequence of BTK (Q06187 402-655 limits assumed): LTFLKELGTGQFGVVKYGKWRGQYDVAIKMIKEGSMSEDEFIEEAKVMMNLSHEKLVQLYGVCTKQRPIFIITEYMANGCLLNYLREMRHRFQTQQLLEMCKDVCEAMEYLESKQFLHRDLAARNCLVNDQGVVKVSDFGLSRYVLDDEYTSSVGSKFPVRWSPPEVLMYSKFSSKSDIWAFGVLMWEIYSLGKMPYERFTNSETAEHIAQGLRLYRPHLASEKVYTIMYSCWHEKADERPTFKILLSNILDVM

BTK-1h = target: T1, BTK-1h (Homo sapiens, UniProt Q06187); experiment: High-throughput screening with 1h-labeled BTK; type: binding
T1 construct: The BTK kinase domain was diluted to 2 μM in the buffer, and 2 μM 1h was added; made in house
T1 sequence (Q06187 402-655): as the sequence (Q06187 402-655 limits assumed) above
Protocol: The collection was composed of BTK binding compounds obtained in our previous luminescence screen[37] (Data set S2). […] The resulting BTK-1h (50 μL) was added to the inhibitors.

[1] = Dataset S2A, 200 μM compound, BTK-1h, 32 °C, 10 min

| SMILES | BTK Inhibition reported in luminescence assay* (BTK) | FI (650)/FI (620) (BTK-1h; [1]) | FI (BTK-1h)/FI (BTK-1h+Inhibitor) at 620 nm (BTK-1h; [1]) | FI (BTK-1h)/FI (BTK-1h+Inhibitor) at 620 nm (BTK-1h; Dataset S2B, 200 μM inhibitor added to BTK-1h (2 μm)) |
| --- | --- | --- | --- | --- |
| Cc1[nH]c(/C=C2\C(=O)Nc3ccccc32)c(C)c1CCC(=O)O [PCM-0095149-002] | 52.4 | 0.9795 | 1.036 |  |
| Cc1c(C(=O)Nc2ccc(Oc3ccnc4[nH]cc(-c5ccccc5)c34)c(F)c2)c(=O)n(-c2ccc(F)cc2)n1C [PCM-0215493-001] | 95.9 | 1.1367 | 1.0338 |  |
| CCOc1nc2cccc(C(=O)OC(C)OC(=O)OC3CCCCC3)c2n1Cc1ccc(-c2ccccc2-c2nn[nH]n2)cc1 (stereo not shown) [PCM-0090385-001] | 53.7 | 0.8568 | 1.076 |  |
| O=[N+]([O-])c1ccc(Sc2cccc[n+]2[O-])c2nonc12 [PCM-0215705-001, NSC228155] | 73.4 | 7.1 | 1.02 | 7.1 |
| O=c1c(O)c(-c2ccc(O)cc2)oc2cc(O)cc(O)c12 [PCM-0087037-002] | 67.7 | 0.933 | 1.031 |  |
| C[C@@H]1O[C@@H](O[C@H]2[C@H](O[C@H]3CC[C@@]4(C)[C@@H](CC[C@]5(C)[C@@H]4CC=C4[C@@H]6CC(C)(C)CC[C@]6(C(=O)O)CC[C@]45C)[C@]3(C)CO)OC[C@H](O[C@@H]3O[C@H](CO)[C@@H](O)[C@H](O)[C@H]3O)[C@@H]2O)[C@H](O)[C@H](O)[C@H]1O [PCM-0216539-001] | 52.5 | 0.7503 | 1.048 |  |
| Cc1cc(O)c(-c2ccc([C@@H](C)CN)cc2)c2c1[nH]c(=O)c1sccc12 [PCM-0215772-001] | 70.3 | 1.102 | 1.063 |  |
| CCOC(=O)c1ccc(NC(=O)O[C@H]2[C@H](OC(=O)Nc3ccc4c(c3)OCO4)[C@@H](OC(=O)Nc3ccc4c(c3)OCO4)[C@@H](OC)O[C@@H]2CO)cc1 [PCM-0215463-001] | 98.1 | 0.9726 | 1.02 |  |
| CN(CC(=O)N(Cc1ccc(C2CCCCC2)cc1)c1ccc(C(=O)O)cc1)S(=O)(=O)c1c(F)c(F)c(F)c(F)c1F [PCM-0095763-002] | 68.7 | 1.026 | 1.04 |  |
| COc1cc(O)c2c(=O)cc(-c3ccc(O)c(O)c3)oc2c1 [PCM-0216461-001] | 61 | 2.385 | 1.063 |  |
| CC1(C)C=Cc2c(ccc3c2OC[C@@H](c2ccc(O)cc2O)C3)O1 [PCM-0214974-001] | 70.3 | 1.13 | 1.0065 |  |
| CCS(=O)(=O)N1CCN(c2ccc(Nc3ncc(C(N)=O)c(NC4CC4)n3)cc2)CC1.Cl [PCM-0215389-001] | 85.5 | 1.233 | 1.12 |  |
| CC/C(=C(/c1ccc(/C=C/C(=O)O)cc1)c1ccc2[nH]ncc2c1)c1ccc(F)cc1Cl [PCM-0216010-001] | 81.1 | 1.58 | 1.142 |  |
| C=CC(=O)Nc1cccc(Nc2nc(Nc3ccc(OCCOC)cc3)ncc2F)c1 [PCM-0095787-002] | 90.3 | 1.569 | 1.288 |  |
| COc1cc(-c2oc3cc(O)cc(O)c3c(=O)c2O)ccc1O [PCM-0216402-001] | 73.4 | 1.5271 | 1.051 |  |
| CN1CCN(c2ccc(C(=O)Nc3n[nH]c4ccc(Cc5cc(F)cc(F)c5)cc34)c(NC3CCOCC3)c2)CC1 [PCM-0215551-001] | 102.8 | 0.9755 | 1.038 |  |
| CN1c2ccccc2C(=O)Nc2cnc(Nc3ccc(N4CCC(O)CC4)cc3)nc21 [PCM-0215745-001] | 93.8 | 1.794 | 1.194 |  |

| SMILES | BTK Inhibition reported in luminescence assay* (BTK) | FI (650)/FI (620) (BTK-1h; [1]) | FI (BTK-1h)/FI (BTK-1h+Inhibitor) at 620 nm (BTK-1h; [1]) | FI (BTK-1h)/FI (BTK-1h+Inhibitor) at 620 nm (BTK-1h; Dataset S2B, 200 μM inhibitor added to BTK-1h (2 μm)) |
| --- | --- | --- | --- | --- |
| CCCCCCCCCCCCc1ccc(S(=O)(=O)Nc2nncs2)cc1 [PCM-0095111-002] | 53.8 | 1.107 | 1.042 |  |
| O=C(/C=C/c1ccc(O)c(O)c1)c1ccc(O)cc1O [PCM-0095622-002] | 55.2 | 1.0597 | 1.03 |  |
| N#CC(C#N)=Cc1ccc(O)c(O)c1 [PCM-0064867-001] | 54.5 | 0.9306 | 1.013 |  |
| C=CC(=O)N1CCN(C(=O)CNc2cc(I)c(Cl)cc2O)CC1 [PCM-0215367-001] | 84.9 | 1.111 | 1.004 |  |
| CC(C)(C)c1cc(/C=C(\C#N)C(N)=S)cc(C(C)(C)C)c1O [PCM-0064936-001] | 82.8 | 0.9335 | 1.037 |  |
| Cc1ccc(C(=O)Nc2ccc(CN3CCN(C)CC3)c(C(F)(F)F)c2)cc1C#Cc1cnc2cccnn12 [PCM-0095174-003] | 92.4 | 1.022 | 1.075 |  |
| COc1ccc(CC(=O)Nc2nc3c(s2)CCc2ccccc2-3)cc1OC [PCM-0215753-001] | 55.9 | 0.9809 | 1.022 |  |
| O=C(NC(NC(=S)Nc1ccc(F)c([N+](=O)[O-])c1)C(Cl)(Cl)Cl)C(c1ccccc1)c1ccccc1 (stereo not shown) [PCM-0215199-001] | 105.5 | 0.9898 | 1.025 |  |
| CC(O)C(=O)O.CN1CCN(c2ccc3nc(-c4c(N)c5c(F)cccc5[nH]c4=O)[nH]c3c2)CC1.O [PCM-0094915-004] | 53.8 | 1.048 and 1.073 | 1.015 and 1.028 |  |
| Cl.O=C1Cc2cc(CCN3CCN(c4nsc5ccccc45)CC3)c(Cl)cc2N1 [PCM-0065598-003] | 52.1 | 1.0625 | 1.055 |  |
| Cl.Cl.Cl.O[C@@H](COc1cccc2ncccc12)CN1CCN(C2c3ccccc3[C@@H]3[C@H](c4ccccc42)C3(F)F)CC1 (stereo partly shown) [PCM-0095161-003] | 102.7 | 0.9335 | 1.115 |  |
| CCCCc1oc2ccccc2c1C(=O)c1cc(I)c(OCCN(CC)CC)c(I)c1.Cl [PCM-0064561-003] | 75.5 | 1.028 | 1.018 |  |
| O=c1cc(-c2ccc(O)c(O)c2)oc2cc(O)cc(O)c12 [PCM-0086559-001] | 84.8 | 2.125 | 1.0702 |  |
| C#CC[C@H](c1nc2cc(Cl)ccc2c(=O)n1Nc1ccccc1)N(CCCN)C(=O)c1cccc(Cl)c1F [PCM-0095802-002] | 52.5 | 1.024 | 1.031 |  |
| C=CC(=O)Nc1cccc(Nc2nc(Nc3ccc(NC4CN(CCF)C4)cc3OC)ncc2C(F)(F)F)c1 [PCM-0215208-001] | 91 | 1.1509 | 1.028 |  |
| C=CC(=O)Nc1ccc2ncnc(Nc3ccc(OCc4cccc(F)c4)c(Cl)c3)c2c1.Cc1ccc(S(=O)(=O)O)cc1 [PCM-0095229-002] | 109.7 | 0.9282 | 1.039 |  |
